Laboratory results as given in article PMC7058083, “Structural basis of ligand binding modes at the human formyl peptide receptor 2” (Nature Communications, 2020).
Numbering of substitutions follows the chain as printed.

Key:
Assay in all cases: Saturation binding of WK(FITC)YMVm, flow cytometry on HEK293F cells
[1] = target: T1, wild-type (WT) and mutant FPR2 (Homo sapiens, UniProt P25090, D281A); settings: FPR2 D281A
T1 construct: expressed in transfected cells; host or cells: HEK293F
Protocol: (§1) Flag-tagged wild-type and mutant FPR2s were cloned into the pTT5 vector and expressed in HEK293F cells. The cells were harvested, and washed with Hanks’ Balanced Salt Solution (HBSS) buffer supplemented with 0.5% bovine serum albumin and 20 mM HEPES, pH 7.4. The cells were then resuspended in the same buffer to the final concentration of 1 × 10^6 cells per ml. The cell-surface expression was measured as mentioned above. […] Mean fluorescent intensity of each well was then read by a FCM (flow cytometry) reader (Millipore). […] For competitive binding of fMLFK, cells were plated in 96-well plates (100,000 cells per well), and incubated with WK(FITC)YMVm at 4 °C for 1 h. The following concentrations of WK(FITC)YMVm were used: 10 nM (wild type, L81^2.60F, E89G, and V105^3.32A), 30 nM (D281^7.32G), 40 nM (H102^3.29F, V160^4.60A, L268^ECL3A, N285^7.36A, and F292^7.43A), and 100 nM (L164^4.64A and T177A). Then increasing concentrations of fMLFK (100 nM–1 mM) were added, and incubated for another 1 h on ice. Mean fluorescent intensity values were measured by flow cytometry. Data were analyzed using Prism 7.0.

[2] = target: T2, wild-type (WT) and mutant FPR2 (Homo sapiens, UniProt P25090, R205A); settings: mutant R205A
T2 construct: expressed in transfected cells; host or cells: HEK293F
T2 sequence (P25090 whole entry R205A): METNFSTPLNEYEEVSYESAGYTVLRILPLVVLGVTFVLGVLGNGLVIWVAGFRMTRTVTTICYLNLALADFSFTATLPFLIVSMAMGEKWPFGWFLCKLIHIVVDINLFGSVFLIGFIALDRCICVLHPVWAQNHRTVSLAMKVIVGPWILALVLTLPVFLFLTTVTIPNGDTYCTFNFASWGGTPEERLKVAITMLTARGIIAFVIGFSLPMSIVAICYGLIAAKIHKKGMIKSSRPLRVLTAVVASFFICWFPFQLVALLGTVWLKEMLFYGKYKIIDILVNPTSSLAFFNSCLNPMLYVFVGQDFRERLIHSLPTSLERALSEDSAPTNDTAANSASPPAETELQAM
Protocol: as §1

[3] = target: T3, wild-type (WT) and mutant FPR2 (Homo sapiens, UniProt P25090, F292A); settings: FPR2 F292A
T3 construct: expressed in transfected cells; host or cells: HEK293F
T3 sequence (P25090 1-351 F292A): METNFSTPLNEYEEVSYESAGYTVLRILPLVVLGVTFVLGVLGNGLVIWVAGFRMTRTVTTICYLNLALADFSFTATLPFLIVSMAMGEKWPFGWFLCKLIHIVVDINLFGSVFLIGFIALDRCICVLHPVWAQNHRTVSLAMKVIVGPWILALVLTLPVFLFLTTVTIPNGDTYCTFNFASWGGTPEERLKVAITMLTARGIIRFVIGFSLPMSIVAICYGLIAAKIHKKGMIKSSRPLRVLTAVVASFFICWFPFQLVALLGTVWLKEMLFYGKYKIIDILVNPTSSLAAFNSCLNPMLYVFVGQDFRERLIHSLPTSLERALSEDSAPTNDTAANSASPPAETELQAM
Protocol: as §1

[4] = target: T4, wild-type (WT) and mutant FPR2 (Homo sapiens, UniProt P25090, D281L); settings: FPR2 D281L
T4 construct: expressed in transfected cells; host or cells: HEK293F
T4 sequence (P25090 whole entry D281L): as the sequence (P25090 whole entry R205A) above, with A205R, D281L counted along it
Protocol: as §1

[5] = target: T5, wild-type (WT) and mutant FPR2 (Homo sapiens, UniProt P25090, N285A); settings: FPR2 N285A
T5 construct: expressed in transfected cells; host or cells: HEK293F
T5 sequence (P25090 1-351 N285A): T3 sequence (P25090 1-351 F292A) with N285A, A292F
Protocol: as §1

[6] = target: T6, wild-type (WT) and mutant FPR2 (Homo sapiens, UniProt P25090, R201F); settings: mutation R201F
T6 construct: expressed in transfected cells; host or cells: HEK293F
T6 sequence (P25090 whole entry R201F): as the sequence (P25090 whole entry R205A) above, with R201F, A205R counted along it
Protocol: as §1

[7] = target: T7, wild-type (WT) and mutant FPR2 (Homo sapiens, UniProt P25090, V105A); settings: FPR2 V105A
T7 construct: expressed in transfected cells; host or cells: HEK293F
T7 sequence (P25090 1-351 V105A): T3 sequence (P25090 1-351 F292A) with V105A, A292F
Protocol: as §1

[8] = target: T8, wild-type (WT) and mutant FPR2 (Homo sapiens, UniProt P25090, T177A); settings: FPR2 T177A
T8 construct: expressed in transfected cells; host or cells: HEK293F
T8 sequence (P25090 1-351 T177A): T3 sequence (P25090 1-351 F292A) with T177A, A292F
Protocol: as §1

[9] = target: T9, wild-type (WT) and mutant FPR2 (Homo sapiens, UniProt P25090, D281G); settings: FPR2 D281G
T9 construct: expressed in transfected cells; host or cells: HEK293F
T9 sequence (P25090 1-351 D281G): T3 sequence (P25090 1-351 F292A) with D281G, A292F
Protocol: as §1

T1 sequence (P25090 whole entry D281A): as the sequence (P25090 whole entry R205A) above, with A205R, D281A counted along it

- Span (% of WT), saturation binding [1]: 42 ± 8 % of WT
- Kd ([1]; mean ± s.e.m., n=3, SEM): 48.6 ± 17.6 nM
- WK(FITC)YMVm binding [2]: complete loss
- Span (% of WT), saturation binding [3]: 54 ± 14 % of WT
- Kd ([3]; mean ± s.e.m., n=3, SEM): 42.5 ± 14.7 nM
- Span (% of WT), saturation binding [4]: 39 ± 11 % of WT
- Kd ([4]; mean ± s.e.m., n=3, SEM): 57.6 ± 14.0 nM
- Span (% of WT), saturation binding [5]: 85 ± 13 % of WT
- Kd ([5]; mean ± s.e.m., n=4, SEM): 43.3 ± 15.3 nM
- WK(FITC)YMVm binding [6]: substantially reduced
- Span (% of WT), saturation binding [7]: 68 ± 15 % of WT
- Kd ([7]; mean ± s.e.m., n=4, SEM): 25.7 ± 7.5 nM
- Span (% of WT), saturation binding [8]: 66 ± 5 % of WT
- Kd ([8]; mean ± s.e.m., n=3, SEM): 109 ± 34 nM
- Span (% of WT), saturation binding [9]: 39 ± 3 % of WT
- Kd ([9]; mean ± s.e.m., n=4, SEM): 34.3 ± 14.1 nM
SMILES: CSCC[C@H](NC(=O)[C@H](Cc1ccc(O)cc1)NC(=O)[C@H](CCCCNC(=S)Nc1ccc2c(c1)C(=O)OC21c2ccc(O)cc2Oc2cc(O)ccc21)NC(=O)[C@@H](N)Cc1c[nH]c2ccccc12)C(=O)N[C@H](C(=O)N[C@H](CCSC)C(N)=O)C(C)C [WK(FITC)YMVm]
